Reference: PMC6685951, “Migration of Bacteriocins Across Gastrointestinal Epithelial and Vascular Endothelial Cells, as Determined Using In Vitro Simulations” (Scientific Reports, 2019)
Bridges are numbered along the chain shown (N, C = ends). Where no end group is shown, it is not given here.

Legend:
L. monocytogenes EGDe [1] = experiment: Antimicrobial activity of NHS-fluorescein labelled versus unlabelled peptides (zone sizes); assay type: cell-based, Listeria monocytogenes; conditions: 50 µM, 20 µL spotted on LEB agar seeded with L. monocytogenes EGDe, overnight 37 °C
Description: HPLC purified stock solutions of nisin A, plantaricin 423 and bacST4SA were prepared by dissolving the peptides in sterile ultrapure water. Immediately before conjugating NHS-fluorescein to the peptides, a stock solution of NHS-fluorescein was prepared by dissolving 1 mg of reagent in 100 µL DMF. The amount of NHS-fluorescein to be added to each peptide was calculated using the Eqs (2) and (3):2 mLpeptide×mgpeptide/mLpeptide×mmolpeptide/mgpeptide×15mmolNHS/mmolpeptide=mmolNHS 3 mmolNHS×473.4(MWofNHS)/mmolNHS×100µLDMF/1mg=µLNHS
The calculated concentration of NHS-fluorescein was added to the peptides and incubated on ice for 2 h. Non-reacted NHS-fluorescein was removed by Sep-Pak C18 column chromatography. Plantaricin 423 and bacST4SA were eluted with 60% acetonitrile containing 0.1% TFA and nisin A with 40% acetonitrile containing 0.1% TFA. Peptides were freeze dried and resuspended in sterile ultrapure water. Concentrations of the labelled peptides were determined with the BCA assay and diluted to 50 µM. Labelled peptides were filtered through a 0.45 µm HVLP membrane and spotted (20 µL) onto LEB agar seeded with 1% L. monocytogenes EGDe (OD600 0.1). Plates were incubated overnight at 37 °C and the fluorescent peptides visualised under a UVP 3UV Ultraviolet Lamp. Inhibition zones were measured using ImageJ software and compared to those of non-labelled peptides.

L. monocytogenes EGDe [2] = assay type: cell-based, Listeria monocytogenes; conditions: EGDe, 18 h
Description: The BCA assay was used according to the manufactures instructions to determine the concentration of the peptides. The MIC of the peptides was determined using a microtiter plate. Briefly, L. monocytogenes EGDe was inoculated into Listeria enrichment broth (LEB) and incubated overnight at 37 °C. The culture was inoculated into fresh LEB and incubated until an OD600 of 0.1 was reached. A series of peptide concentrations was prepared and 50 µL of each added per well, followed by the addition of 150 µL culture. The controls were ddH2O containing 0.1% (v/v) TFA with 150 µL culture or media. Microtiter plates were incubated at 37 °C and OD600 readings were taken at T0, T5 and T18 (hours). The MIC was determined as the lowest peptide concentration required to inhibit the growth of L. monocytogenes EGDe after 18 h.

[3] = in vivo, po; cited from earlier work

With “KYYGNGVSCNKKGCSVDWGKAIGIIGNNSAANLATGGAAGWKS (disulfide 9-14) [bacST4SA]” the “decrease in activity of labelled versus unlabelled peptide (antimicrobial zone sizes)” value (L. monocytogenes EGDe [1]) was 21% and the MIC (L. monocytogenes EGDe [2]) was 10 µM.

For `CC1(C)S[C@@H]2[C@H](NC(=O)[C@H](N)c3ccc(O)cc3)C(=O)N2[C@H]1C(=O)O` [Amoxicillin], the bioavailability [3] is given as 74-92%.

In the case of `O=C(N[C@H](CO)[C@H](O)c1ccc([N+](=O)[O-])cc1)C(Cl)Cl` [Chloramphenicol], the “time to peak blood levels” value [3] is given as ≤ 2 h.

For `CC1(C)S[C@@H]2[C@H](NC(=O)COc3ccccc3)C(=O)N2[C@H]1C(=O)O` [penicillin V], the bioavailability [3] is listed as 60-70%.
